# Results taken from patent US20100062083A1, “DERMAL FILM-FORMING LIQUID FORMULATIONS FOR DRUG RELEASE TO SKIN” (POLICHEM S.A., priority 2007, published 2010).
# Several values for one entry are separate records, joined by “and”; a condition that tells them apart may be missing. Equal values may be shown once.
# Experiment: in vitro permeation test, Gummer permeation vertical cells
# Format: in vitro ADME, mice
# Conditions: for ciclopirox permeated: 75.0 μL of composition of Example 4 on hairless mice skin, individual experiments test 1-6
# Experimental: An in vitro permeation test was performed by applying the film forming solution according to the Example 4 to excised hairless mice skin, obtained from dorsal or abdominal skin of male hairless mice (strain MF1-hr-hr/OIa, Nossan srl, Correzzana, Milan, Italy) aged 7-10 weeks. Portions of the skin (ca 9 cm^2), after removal of adhering fat and subcutaneous tissues, were placed as a barrier between the two compartment of Gummer permeation vertical cells (Gummer, C. L. et al. The skin penetration cell: design update. Int. J. Pharm. 1987, 40, 101-104). The receiving phase was introduced into the lower compartment and 75.0 μL of the composition according to the Example 4 were regularly distributed on the exposed skin surface. At predetermined time intervals (1, 2, 3, 4 and 5 hours) 5.0 mL of the receiving solution were collected for analysis and immediately replaced by an equal volume of fresh buffer. The experiment was replicated 6 times.
smiles,measurement,setting,value
Cc1cc(C2CCCCC2)n(O)c(=O)c1 [ciclopirox],"permeation through mice skin, conclusion",,able to permeate the mice skin
same,ciclopirox permeated,h 1,0.001548 mg/cm^2 and 0.002964 mg/cm^2 and 0.001542 mg/cm^2 and 0.001617 mg/cm^2 and 0.00487 mg/cm^2 and 0.02038 mg/cm^2
same,ciclopirox permeated,h 2,0.01134 mg/cm^2 and 0.05066 mg/cm^2 and 0.01241 mg/cm^2 and 0.0445 mg/cm^2 and 0.04696 mg/cm^2 and 0.1182 mg/cm^2
same,ciclopirox permeated,h 3,0.05601 mg/cm^2 and 0.102 mg/cm^2 and 0.04902 mg/cm^2 and 0.1745 mg/cm^2 and 0.2725 mg/cm^2 and 0.4084 mg/cm^2
same,ciclopirox permeated,h 4,0.1146 mg/cm^2 and 0.1226 mg/cm^2 and 0.08552 mg/cm^2 and 0.2757 mg/cm^2 and 0.5273 mg/cm^2 and 0.7623 mg/cm^2
same,ciclopirox permeated,h 5,0.1721 mg/cm^2 and 0.1401 mg/cm^2 and 0.1517 mg/cm^2 and 0.328 mg/cm^2 and 0.7212 mg/cm^2 and 1.025 mg/cm^2
